Calls of active or inactive are those of the source. The rule behind the calls is not given here.
Tests used:
[1] = Photostability of the compound in aerated acetone under irradiation at 532 nm laser pulses; type: physicochemical; parameters: dose or concentration left out as unconfirmed
[2] = tested on: HeLa; assay: Cytotoxicity against human HeLa cells assessed as decrease in cell viability under dark condition after 18 hrs by MTT assay; type: cell-based
[3] = Cellular uptake in mitochondria of human HeLa cells under prolonged irradiation at 365 nm up to 10 uM after 18 hrs by mitotracker green staining-based fluorescence microscopic analysis; type: ADME
[4] = tested on: HeLa; assay: Phototoxicity against human HeLa cells assessed as decrease in cell viability at < 5 uM preincubated for 18 hrs followed by > 3.5 J/cm'2 of photoirradiation measured after 24 hrs by MTT assay; type: functional, cell-based
[5] = tested on: HeLa; assay: Phototoxicity against human HeLa cells assessed as decrease in cell viability at > 5 uM preincubated for 18 hrs followed by 3.5 J/cm'2 of photoirradiation measured after 24 hrs by MTT assay; type: functional, cell-based
[6] = tested on: HeLa; assay: Cellular uptake in human HeLa cells under ultraviolet irradiation at 365 nm at 0.5 uM after 18 hrs by mitotracker green staining-based fluorescence microscopic analysis; type: ADME, cell-based
[7] = Cellular uptake in mitochondria of human HeLa cells under ultraviolet irradiation at 365 nm at 1 to 10 uM after 18 hrs by mitotracker green staining-based fluorescence microscopic analysis; type: ADME
[8] = Cellular uptake in cytoplasm of human HeLa cells under ultraviolet irradiation at 365 nm at 1 to 10 uM after 18 hrs by mitotracker green staining-based fluorescence microscopic analysis; type: ADME, cell-based
[9] = Cellular uptake in cytoplasm of human HeLa cells under prolonged irradiation at 365 nm up to 10 uM after 18 hrs by mitotracker green staining-based fluorescence microscopic analysis; type: ADME, cell-based

Stability [1]	Drug uptake [3]	Drug uptake [6]	Drug uptake [7]	Drug uptake [8]	Drug uptake [9]	Structure (SMILES)	Activity [2]	Activity [4]	Activity [5]
Stable						Oc1cccc(-c2c3nc(c(-c4cccc(O)c4)c4ccc([nH]4)c(-c4cccc(O)c4)c4nc(c(-c5cccc(O)c5)c5ccc2[nH]5)CC4)C=C3)c1 [TEMOPORFIN]	Toxic		
Stable	Active	Not Active	Active	Active	Active	Oc1cccc(C2=Cc3nc2ccc2[nH]c(cc2-c2cccc(O)c2)c2nc(ccc4[nH]c3cc4-c3cccc(O)c3)C(c3cccc(O)c3)=C2)c1	Non-toxic	Active	Active
